Data on nine compounds can be found in publication PMC8271877, “Identifying a Deferiprone–Resveratrol Hybrid as an Effective Lipophilic Anti-Plasmodial Agent” (Molecules, 2021).

“Also recorded” adds a separate entry of the source. Where two headings read alike, the source gives them in different places.

On the set-up of data set [1]: method as in PMID 26424148. The note with it: cited from earlier work.
Data set [2] concerns P. falciparum. Also noted: method as in PMID 26424148. The note with it: read-out: IC50, inhibition of P. falciparum growth; cited from earlier work.
Data set [3] concerns P. falciparum. The note with it: read-out: IC50 against P. falciparum; cited from earlier work.
In data set [4] the test system is P. falciparum (K1 strain). Put plainly: Drug sensitivity test (SYBR Green I), P. falciparum K1 strain. In kind it is cell-based, Plasmodium falciparum.
For data set [5] the following is noted: cited from earlier work.
A short description of data set [6]: Partition coefficient (Po/w), 1-octanol/water system. Conditions: mean ± SD of three repetitions.
In the next data set the test system is normal cell line. Conditions: read-out: IC50, normal cell line; cited from earlier work.
Data set [7] relates to P. falciparum. More on the design: method as in PMID 23266185. Conditions: read-out: IC50 against P. falciparum; cited from earlier work.
For data set [8], the system named is P. falciparum (3D7 strain). Put plainly: Drug sensitivity test (SYBR Green I), P. falciparum 3D7 strain. In kind it is cell-based, Plasmodium falciparum. Conditions: for IC50: read-out: Absolute IC50 Value, P. falciparum (3D7 Strain).
Details of data set [9]: method as in PMID 32208614. Conditions: cited from earlier work.
Details of data set [10]: method as in PMID 28061347. Conditions: metal-chelating activity; cited from earlier work.
Data set [11] has as its system labile iron pools in P. falciparum-infected red blood cells (PRBCs). The experiment in a line: Labile iron pool (LIP) in P. falciparum-infected RBC, calcein quenching, flow cytometry. In kind it is cell-based, Plasmodium falciparum. The note with it: for effect on MFI values of PRBCs (LIP content): 25–200 µM, calcein fluorescence, higher MFI = less LIP.
Another data set deals with healthy human PBMCs. The experiment in a line: MTT toxicity study in peripheral blood mononuclear cells.
The next data set relates to Aβ1–42. More on the design: method as in PMID 28061347. The note with it: read-out: IC50, Cu2+/Fe3+-induced Aβ1–42 aggregation; cited from earlier work.
On the set-up of data set [12]: method as in PMID 28061347. Conditions: read-out: IC50, antioxidant activity; cited from earlier work.
The mark [13] stands for this setting: Plasmodium falciparum, K1, 48 h, read-out: Absolute IC50 Value, P. falciparum (K1 Strain), PYR-resistant K1, 48 h, monotherapy.
Setting [14] is: Plasmodium falciparum, 3D7, 48 h.

For the compound `CC(=O)NCCCCCCn1ccc(=O)c(O)c1C` [CM1, 1-(N-acetyl-6-aminohexyl)-3-hydroxy-2-methylpyridin-4-one], the Kpart in data set [1] was 0.53. The IC50 in the data set on P. falciparum [2] is 35.1 µM.
On to `COCCOCCOCCOc1cccc(C2=N[C@@](C)(C(=O)O)CS2)c1O` [DADFT-PE, (S)3″-(HO)-desazadesferrithiocin-polyether], for which the IC50 in the data set on P. falciparum [3] was 6 µM.
For the compound `CC(=O)N(O)CCCCCNC(=O)CCC(=O)N(O)CCCCCNC(=O)CCC(=O)N(O)CCCCCN` [DFO, desferrioxamine], the IC50 in the data set on P. falciparum [3] was 30 µM.
Turning to `Cc1c(O)c(=O)ccn1C` [DFP, 1,2-dimethyl-3-hydroxypyridin-4-one], the IC50 in data set [4] (setting [13]) is 42 µM; in the data set on P. falciparum [3], 15 µM; with normal cell line, over 200 µM; in the data set with P. falciparum [7], 67 µM; in data set [8] (setting [14]) it was 47.7 µM; in the data set with P. falciparum [2], 58.2 µM. In data set [1], the Kpart was 0.17. Besides, in data set [5], the “log Po/w values for free ligands” value was −0.77. Besides, the “log Po/w values for [Fe-L3]” value in data set [5] (iron complex) was −2.6. Further, the “Po/w Values (partition coefficient)” value in [6] was determined as 0.18 ± 0.06. Also, the “iron-mobilizing efficacy in rats” value in data set [9] is on record as 11.8%. Moreover, the “pFe(III)” value in [10] is 20.6. Also, in data set [11], the “effect on MFI values of PRBCs (LIP content)” value was “significantly increased the MFI values”.
Regarding `Cn1cc(O)c(=O)cc1C=Cc1cc(O)cc(O)c1` [DFP-RVT, 2-(3,5-dihydroxystyryl)-5-hydroxy-1-methylpyridin-4(1H)-one], the “anti-malarial activity of combined treatment with PYR, K1 strain” value in [4] (DFP-RVT (0–15 µM) with 75 µM PYR, 48 h) is reported as “significantly enhanced the anti-malarial activity; also recorded: additive effects”. Moreover, the IC50 in [4] (setting [13]) was 13.4 µM; in data set [4] (read-out: Absolute IC50 Value, P. falciparum (K1 Strain), PYR-resistant K1, 48 h, monotherapy), 14 µM; in data set [8] (setting [14]), 16.8 µM; in the data set on Aβ1–42, 10.7 µM; in data set [12], 1.73 µM. Also, the “toxicity to PBMCs” value with healthy human PBMCs (200 µM, 48 h of incubation) is recorded as “slightly toxic”; in the data set on healthy human PBMCs (25–200 µM, 24 h of incubation), “not found to be toxic”. In the data set on healthy human PBMCs (concentrations up to 200 µM), the “toxicity to PBMCs (words, summary)” value was “nontoxic to blood mononuclear cells”. The “anti-malarial activity of combined treatment with PYR, 3D7 strain” value in data set [8] (DFP-RVT 5–15 µM with 25 nM PYR, 48 h) was “significant level of enhancement of anti-malarial activity; also recorded: additive effects”. In addition, the “pFe(III)” value in data set [10] was 19.6. Moreover, the “effect on MFI values of PRBCs (LIP content)” value in data set [11] is “significantly increased the MFI values”. The “reduction in LIP levels in PRBCs compared with DFP (∆MFI)” value in data set [11] (equal concentrations) is “more effective than conventional DFP at equal concentrations”.
On to `CCc1nc(N)nc(N)c1-c1ccc(Cl)cc1` [PYR, pyrimethamine], for which the IC50 in data set [4] (PYR-resistant K1, 48 h, monotherapy, read-out: Absolute IC50 Value, P. falciparum (K1 Strain)) turned out to be 106 µM; in [4] (Plasmodium falciparum, K1, 48 h, PYR-resistant K1, 48 h, monotherapy, read-out: Absolute IC50 Value, P. falciparum (K1 Strain)), 106 µM; in data set [8] (PYR-sensitive wild-type 3D7, 48 h, monotherapy) it was 0.05 µM; in data set [8] (Plasmodium falciparum, 3D7, 48 h, PYR-sensitive wild-type 3D7, 48 h, monotherapy) it was 0.046 µM.
With `Oc1ccc(/C=C/c2cc(O)cc(O)c2)cc1` [RVT, 3,5,4′-trihydroxy-trans-stilbene], the IC50 with Aβ1–42 is 11.9 µM.
On to `Cc1c(C)c2c(c(C)c1O)CCC(C)(C(=O)O)O2` (stereo not shown) [Trolox], for which, in data set [12], the IC50 was 3.89 µM.
For the compound `COc1cc(/C=C/C(=O)CC(=O)/C=C/c2ccc(O)c(OC)c2)ccc1O` [curcumin], the IC50 in the data set on Aβ1–42 is 18.7 µM.
